# Reference: patent publication US20050289668A1, “Plants with increased levels of one or more amino acids” (priority 2003, published 2005)
# Residue numbers refer to the chain shown, from its start.
# How the values were obtained:
# Format in all cases: biochemical
# [1] = target: T1, E. coli threonine deaminase (ilvA) variant L481Q, SEQ ID NO: 9 (Escherichia coli, UniProt P04968, A120R/A140R/G195C/G334V/L481Q/V121L); assay: Threonine deaminase steady state kinetics, L481Q
# T1 construct: made in house; host or cells: E. coli (pSE380, crude extract)
# T1 sequence (P04968 1-514 A120R/V121L/A140R/G195C/G334V/L481Q): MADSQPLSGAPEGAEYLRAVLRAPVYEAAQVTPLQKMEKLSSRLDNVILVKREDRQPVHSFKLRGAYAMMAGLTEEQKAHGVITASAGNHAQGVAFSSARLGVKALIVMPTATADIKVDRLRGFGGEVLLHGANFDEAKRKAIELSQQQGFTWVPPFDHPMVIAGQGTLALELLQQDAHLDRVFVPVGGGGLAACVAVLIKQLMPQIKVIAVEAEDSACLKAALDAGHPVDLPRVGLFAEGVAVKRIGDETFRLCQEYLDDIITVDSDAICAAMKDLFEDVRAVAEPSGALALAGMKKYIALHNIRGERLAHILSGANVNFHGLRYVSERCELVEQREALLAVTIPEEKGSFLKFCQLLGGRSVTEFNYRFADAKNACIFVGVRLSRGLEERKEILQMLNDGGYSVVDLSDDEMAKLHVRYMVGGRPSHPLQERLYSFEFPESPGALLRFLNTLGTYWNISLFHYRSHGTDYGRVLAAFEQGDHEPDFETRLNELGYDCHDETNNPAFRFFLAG
# Procedure: (§1) Before conducting further transformation experiments using the isolated ilvA alleles in transgenic plants, each allele was over-expressed in E. coli to determine its kinetic parameters. Kinetics data on threonine deaminases containing various mutations, and a comparison to data available for threonine deaminases from Arabidopsis, are provided in Table 4. The E. coli ilvA481 variants were subcloned into pSE380 (Invitrogen, Carlsbad, Calif.) and expression was induced with 0.2 mM IPTG at 37° C. for 3 hours. Expression of the E. coli alleles was high and fairly consistent as visualized by SDS-PAGE.
# (§2) The effects of amino acid substitutions at Leu481 in ilvA were assessed by steady state kinetic analysis in the presence and absence of L-isoleucine. Threonine deaminase polypeptides for use in in vitro kinetics studies were extracted from E. coli cells in assay buffer containing 50 mM potassium phosphate (pH7.5), 1 mM dithiothreitol (DTT), and 0.5 mM ethylenediamine-tetraacetate. A continuous assay method was employed to monitor the formation of α-ketobutyrate directly at 230 nm (ε230 (pH7.5)=540 M^−1cm^−1 whereas threonine absorption was negligible (˜1%)). The assay was initiated by adding 20 μl of crude extract diluted 1:20 v/v to the assay vessel containing L-threonine (between 2.5 mM and 50 mM) in a final volume of 1 mL. For L-isoleucine inhibition, L-isoleucine was added between 0 mM and 20 mM. The kinetic parameters were determined by fitting the data points to the equations using GraFit 4.0 software (Erithacus Software, Surrey, UK). For comparison, the kcat values of L481 alleles were normalized to the kcat value for the wild type IlvA enzyme. Enzymes represented in FIG. 7 are: wild type E. coli threonine deaminase (circles), L481Y TD enzyme (diamonds), L481F TD enzyme (triangles), and the L481T TD enzyme (squares). Table 4 also summarizes the kinetic parameters of the variant threonine deaminase enzymes produced by the various E. coli ilvA alleles.
# [2] = target: T2, E. coli threonine deaminase (ilvA) variant L481Y, SEQ ID NO: 5 (Escherichia coli, UniProt P04968, A120R/A140R/G195C/G334V/L481Y/V121L); assay: Threonine deaminase steady state kinetics, L481Y
# T2 construct: made in house; host or cells: E. coli (pSE380, crude extract)
# T2 sequence (P04968 1-514 A120R/V121L/A140R/G195C/G334V/L481Y): T1 sequence (P04968 1-514 A120R/V121L/A140R/G195C/G334V/L481Q) with Q481Y
# Procedure: as §1, §2
# [3] = target: T3, E. coli threonine deaminase (ilvA) variant L481E, SEQ ID NO: 7 (Escherichia coli, UniProt P04968, A120R/A140R/G195C/G334V/L481E/V121L); assay: Threonine deaminase steady state kinetics, L481E
# T3 construct: made in house; host or cells: E. coli (pSE380, crude extract)
# Procedure: as §1
# The effects of amino acid substitutions at Leu481 in ilvA were assessed by steady state kinetic analysis in the presence and absence of L-isoleucine. Threonine deaminase polypeptides for use in in vitro kinetics studies were extracted from E. coli cells in assay buffer containing 50 mM potassium phosphate (pH7.5), 1 mM dithiothreitol (DTT), and 0.5 mM ethylenediamine-tetraacetate. A continuous assay method was employed to monitor the formation of α-ketobutyrate directly at 230 nm (ε230 (pH7.5)=540 M^−1cm^−1 whereas threonine absorption was negligible (˜1%)). […] The kinetic parameters were determined by fitting the data points to the equations using GraFit 4.0 software (Erithacus Software, Surrey, UK). […]
# T3 sequence (P04968 whole entry A120R/V121L/A140R/G195C/G334V/L481E): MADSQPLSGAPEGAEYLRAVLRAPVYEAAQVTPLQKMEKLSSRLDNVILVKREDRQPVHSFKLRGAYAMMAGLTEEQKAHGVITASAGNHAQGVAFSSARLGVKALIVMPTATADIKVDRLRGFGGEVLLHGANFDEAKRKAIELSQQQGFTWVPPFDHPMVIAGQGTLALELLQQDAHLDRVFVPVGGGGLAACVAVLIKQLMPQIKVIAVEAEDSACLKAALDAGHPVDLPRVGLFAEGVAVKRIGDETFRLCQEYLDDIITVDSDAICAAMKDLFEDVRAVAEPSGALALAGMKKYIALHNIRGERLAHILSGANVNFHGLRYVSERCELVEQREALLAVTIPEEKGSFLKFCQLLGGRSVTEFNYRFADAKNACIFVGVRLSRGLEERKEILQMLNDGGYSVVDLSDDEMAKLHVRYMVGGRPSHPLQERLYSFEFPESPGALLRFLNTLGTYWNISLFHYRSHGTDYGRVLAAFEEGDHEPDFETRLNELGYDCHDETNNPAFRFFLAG
SMILES,IC50 [1] [µM],IC50 [2] [µM],IC50 [3] [µM],"Hill coefficient (n), substrate binding ([1]; L481Q, pMON25865, positive cooperativity)","Km ([1]; read-out: Km^Thr, L481Q, pMON25865, pH 7.5, L-threonine 2.5-50 mM) [mM]","Hill coefficient (n), substrate binding ([2]; L481Y, pMON25868, degree of cooperativity)","Km ([2]; read-out: Km^Thr, L481Y, pMON25868, pH 7.5, L-threonine 2.5-50 mM) [mM]","Km ([3]; read-out: Km^Thr, L481E, pMON25860, pH 7.5, L-threonine 2.5-50 mM) [mM]"
CC[C@H](C)[C@H](N)C(=O)O [L-isoleucine],188,1600,445,,,,,
C[C@@H](O)[C@H](N)C(=O)O [L-threonine],,,,1.6,8.8,1.1,2,3.9
